Assay results as given in ChEMBL document CHEMBL5346964, “Discovery of LNP1892: A Precision Calcimimetic for the Treatment of Secondary Hyperparathyroidism” (J Med Chem, 2023).

How the values were obtained:
[1] = Cmax in Sprague-Dawley rat at 10 mg/kg, po measured upto 24 hrs by LC-MS/MS analysis; type: ADME, organism-based; parameters: time < 24 hrs, dose 10 mg/kg, route po; conditions: in vivo
[2] = Effect on parathyroid hormone in overnight fasted Sprague-Dawley rat assessed as reduction in plasma PTH level at 10 mg/kg, po measured after 0.5 hrs of post treatment by sandwich ELISA analysis; type: functional; parameters: scale not given: the % may be the effect or the level left
[3] = Oral bioavailability in Sprague-Dawley rat at 10 mg/kg measured upto 24 hrs by LC-MS/MS analysis; type: ADME, organism-based; conditions: in vivo
[4] = Tmax in Sprague-Dawley rat at 10 mg/kg, po measured upto 24 hrs by LC-MS/MS analysis; type: ADME, organism-based; conditions: in vivo
[5] = AUClast in Sprague-Dawley rat at 10 mg/kg, po measured upto 24 hrs by LC-MS/MS analysis; type: ADME, organism-based; parameters: dose 10 mg/kg, time < 24 hrs, route po; conditions: in vivo
[6] = Effect on parathyroid hormone in overnight fasted Sprague-Dawley rat plasma assessed as reduction in PTH level at 30 mg/kg, po measured after 0.5 hrs of post treatment by sandwich ELISA analysis; type: functional; parameters: scale not given: the % may be the effect or the level left
[7] = molecular target: T1, CYP2D6 (Homo sapiens, UniProt P10635); assay: Inhibition of CYP2D6 in human liver microsomes at 10 uM preincubated for 5 mins followed by NADPH addition by LC-MS/MS analysis relative to control; type: ADME, Microsome
[8] = Microsomal stability in human liver microsomes assessed as parent compound remaining at 1 uM measured upto 30 mins in presence of NADPH by LC-MS/MS analysis; type: ADME, Microsome; conditions: liver microsomes, read-out: Stability
[9] = Microsomal stability in rat liver microsomes assessed as parent compound remaining at 1 uM measured upto 30 mins in presence of NADPH by LC-MS/MS analysis; type: ADME, Microsome; conditions: read-out: Stability
[10] = molecular target: T2, hERG (Homo sapiens, UniProt Q12809); assay: Inhibition of hERG at 1 uM relative to control; type: toxicity
[11] = Effect on parathyroid hormone in overnight fasted Sprague-Dawley rat assessed as reduction in plasma PTH level at 10 mg/kg, po measured after 2 hrs of post treatment by sandwich ELISA analysis; type: functional; parameters: scale not given: the % may be the effect or the level left
[12] = Effect on parathyroid hormone in overnight fasted Sprague-Dawley rat assessed as reduction in plasma PTH level at 30 mg/kg, po measured after 1 hrs of post treatment by sandwich ELISA analysis; type: functional; parameters: scale not given: the % may be the effect or the level left
[13] = molecular target: T2, hERG; assay: Inhibition of hERG at 10 uM relative to control; type: toxicity
[14] = Half life in Sprague-Dawley rat at 1 mg/kg, iv measured upto 24 hrs by LC-MS/MS analysis; type: ADME, organism-based; conditions: in vivo
[15] = Effect on parathyroid hormone in overnight fasted Sprague-Dawley rat assessed as reduction in plasma PTH level at 30 mg/kg, po measured after 4 hrs of post treatment by sandwich ELISA analysis; type: functional; parameters: scale not given: the % may be the effect or the level left
[16] = Effect on parathyroid hormone in overnight fasted Sprague-Dawley rat assessed as reduction in plasma PTH level at 10 mg/kg, po measured after 1 hrs of post treatment by sandwich ELISA analysis; type: functional; parameters: scale not given: the % may be the effect or the level left
[17] = Tmax in Sprague-Dawley rat at 1 mg/kg, iv measured upto 24 hrs by LC-MS/MS analysis; type: ADME, organism-based; conditions: in vivo
[18] = Clearance in Sprague-Dawley rat at 1 mg/kg, iv measured upto 24 hrs by LC-MS/MS analysis; type: ADME, organism-based; conditions: in vivo
[19] = AUClast in Sprague-Dawley rat at 1 mg/kg, iv measured upto 24 hrs by LC-MS/MS analysis; type: ADME, organism-based; parameters: dose 1 mg/kg, time < 24 hrs, route iv; conditions: in vivo
[20] = Effect on parathyroid hormone in overnight fasted Sprague-Dawley rat assessed as reduction in plasma PTH level at 30 mg/kg, po measured after 2 hrs of post treatment by sandwich ELISA analysis; type: functional; parameters: scale not given: the % may be the effect or the level left
[21] = Volume of distribution at steady state in Sprague-Dawley rat at 1 mg/kg, iv measured upto 24 hrs by LC-MS/MS analysis; type: ADME, organism-based; conditions: in vivo, read-out: Vdss
[22] = Cmax in Sprague-Dawley rat at 1 mg/kg, iv measured upto 24 hrs by LC-MS/MS analysis; type: ADME, organism-based; parameters: dose 1 mg/kg, time < 24 hrs, route iv; conditions: in vivo
[23] = molecular target: T3, Extracellular calcium-sensing receptor (Homo sapiens, UniProt P41180); assay: Agonist activity at human CaSR expresssed in HEK293 cells in presence of glucose by Fluo4NW dye based FLIPR assay; type: functional, cell-based; conditions: read-out: EC50
T3 sequence (P41180 whole entry): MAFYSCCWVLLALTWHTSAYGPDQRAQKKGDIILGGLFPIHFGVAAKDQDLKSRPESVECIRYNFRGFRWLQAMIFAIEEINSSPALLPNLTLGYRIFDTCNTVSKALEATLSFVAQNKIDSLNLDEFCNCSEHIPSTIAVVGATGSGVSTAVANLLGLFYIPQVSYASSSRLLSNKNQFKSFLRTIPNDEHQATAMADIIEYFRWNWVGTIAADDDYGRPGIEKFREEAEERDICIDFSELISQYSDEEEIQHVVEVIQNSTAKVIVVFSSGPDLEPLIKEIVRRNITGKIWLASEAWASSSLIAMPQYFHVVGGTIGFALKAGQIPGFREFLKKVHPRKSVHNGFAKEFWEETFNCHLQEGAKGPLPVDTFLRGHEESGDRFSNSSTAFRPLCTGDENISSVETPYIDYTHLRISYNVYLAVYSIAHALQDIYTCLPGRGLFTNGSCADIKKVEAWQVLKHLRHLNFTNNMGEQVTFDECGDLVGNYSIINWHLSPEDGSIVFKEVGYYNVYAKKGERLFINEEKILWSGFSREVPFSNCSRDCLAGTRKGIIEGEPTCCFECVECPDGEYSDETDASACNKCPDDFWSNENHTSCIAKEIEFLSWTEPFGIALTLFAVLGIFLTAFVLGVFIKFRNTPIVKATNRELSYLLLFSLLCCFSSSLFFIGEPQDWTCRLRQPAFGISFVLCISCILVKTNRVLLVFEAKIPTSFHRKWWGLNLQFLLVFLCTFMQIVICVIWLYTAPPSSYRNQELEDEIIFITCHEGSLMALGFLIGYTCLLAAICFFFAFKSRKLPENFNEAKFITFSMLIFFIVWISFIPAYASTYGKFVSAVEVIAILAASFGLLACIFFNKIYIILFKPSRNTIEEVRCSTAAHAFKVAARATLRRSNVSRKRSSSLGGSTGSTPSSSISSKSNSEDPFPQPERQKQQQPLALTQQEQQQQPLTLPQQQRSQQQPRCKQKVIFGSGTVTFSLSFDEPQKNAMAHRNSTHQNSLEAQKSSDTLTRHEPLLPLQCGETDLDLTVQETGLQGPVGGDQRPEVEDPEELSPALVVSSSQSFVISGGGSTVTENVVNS

[24] = molecular target: T1, CYP2D6; assay: Inhibition of CYP2D6 in human liver microsomes at 1 uM preincubated for 5 mins followed by NADPH addition by LC-MS/MS analysis relative to control; type: ADME, Microsome
[25] = Effect on parathyroid hormone in overnight fasted Sprague-Dawley rat assessed as reduction in plasma PTH level at 10 mg/kg, po measured after 4 hrs of post treatment by sandwich ELISA analysis (reference value: 18%); type: functional; parameters: scale not given: the % may be the effect or the level left
[26] = Effect on parathyroid hormone in overnight fasted Sprague-Dawley rat assessed as reduction in plasma PTH level at 10 mg/kg, po measured after 6 hrs of post treatment by sandwich ELISA analysis (reference value: 33%); type: functional; parameters: scale not given: the % may be the effect or the level left
[27] = molecular target: Cytochrome P450 2D6 (Homo sapiens, UniProt P10635); assay: Inhibition of CYP2D6 in human liver microsomes preincubated for 5 mins followed by NADPH addition by LC-MS/MS analysis; type: ADME, Microsome
[28] = system: Rattus norvegicus; assay: Effect on parathyroid hormone in po dosed overnight fasted Sprague-Dawley rat assessed as reduction in plasma PTH level measured after 0.5 to 6 hrs of post treatment by sandwich ELISA analysis; type: functional, organism-based; conditions: dose 3-30 mg/kg, time 0.5-6 hrs
[29] = system: Rattus norvegicus; assay: Chronic effect on parathyroid hormone in overnight fasted adenine diet-induced chronic kidney disease Wistar rat model plasma assessed as reduction in plasma PTH level at 10 mg/kg, po qd measured after 27 days of post treatment by sandwich ELISA analysis; type: functional; parameters: scale not given: the % may be the effect or the level left; conditions: time 27 day
[30] = system: Rattus norvegicus; assay: Subchronic effect on parathyroid hormone in overnight fasted adenine diet-induced chronic kidney disease Wistar rat model plasma assessed as reduction in plasma PTH level at 3 mg/kg, po qd measured after 27 days of post treatment by sandwich ELISA analysis; type: functional; parameters: scale not given: the % may be the effect or the level left; conditions: time 27 day
[31] = system: Rattus norvegicus; assay: Acute effect on parathyroid hormone in overnight fasted adenine diet-induced chronic kidney disease Wistar rat model assessed as reduction in plasma PTH level at 10 mg/kg, po measured after 1 hrs of post treatment by sandwich ELISA analysis; type: functional; parameters: scale not given: the % may be the effect or the level left
[32] = system: Rattus norvegicus; assay: Acute effect on parathyroid hormone in overnight fasted adenine diet-induced chronic kidney disease Wistar rat model assessed as reduction in plasma PTH level at 10 mg/kg, po measured after 4 hrs of post treatment by sandwich ELISA analysis; type: functional; parameters: scale not given: the % may be the effect or the level left
[33] = system: Rattus norvegicus; assay: Acute effect on parathyroid hormone in overnight fasted adenine diet-induced chronic kidney disease Wistar rat model assessed as reduction in plasma PTH level at 10 mg/kg, po measured after 2 hrs of post treatment by sandwich ELISA analysis; type: functional; parameters: scale not given: the % may be the effect or the level left
[34] = Clearance in Sprague-Dawley rat at 0.3 mg/kg, iv measured upto 24 hrs by LC-MS/MS analysis; conditions: in vivo
[35] = Volume of distribution at steady state in Sprague-Dawley rat at 0.3 mg/kg, iv measured upto 24 hrs by LC-MS/MS analysis; conditions: in vivo
[36] = Half life in Sprague-Dawley rat at 0.3 mg/kg, iv measured upto 24 hrs by LC-MS/MS analysis; conditions: in vivo
[37] = AUClast in Sprague-Dawley rat at 0.3 mg/kg, iv measured upto 24 hrs by LC-MS/MS analysis; type: ADME, organism-based; parameters: dose 0.3 mg/kg, time < 24 hrs, route iv; conditions: in vivo
[38] = Half life in Sprague-Dawley rat at 1 mg/kg, po measured upto 24 hrs by LC-MS/MS analysis; conditions: in vivo
[39] = in vivo; conditions: Sprague-Dawley, rat, po, 1 mg/kg
Description: Tmax in Sprague-Dawley rat at 1 mg/kg, po measured upto 24 hrs by LC-MS/MS analysis

[40] = AUClast in Sprague-Dawley rat at 1 mg/kg, po measured upto 24 hrs by LC-MS/MS analysis; type: ADME, organism-based; parameters: dose 1 mg/kg, time < 24 hrs, route po; conditions: in vivo
[41] = in vivo; conditions: Sprague-Dawley, rat, po, 1 mg/kg; remark: listed apart in the source
Description: Cmax in Sprague-Dawley rat at 1 mg/kg, po measured upto 24 hrs by LC-MS/MS analysis

[42] = in vivo; conditions: Sprague-Dawley, rat, iv, 0.3 mg/kg
Description: Cmax in Sprague-Dawley rat at 0.3 mg/kg, iv measured upto 24 hrs by LC-MS/MS analysis

T2 sequence (Q12809 whole entry): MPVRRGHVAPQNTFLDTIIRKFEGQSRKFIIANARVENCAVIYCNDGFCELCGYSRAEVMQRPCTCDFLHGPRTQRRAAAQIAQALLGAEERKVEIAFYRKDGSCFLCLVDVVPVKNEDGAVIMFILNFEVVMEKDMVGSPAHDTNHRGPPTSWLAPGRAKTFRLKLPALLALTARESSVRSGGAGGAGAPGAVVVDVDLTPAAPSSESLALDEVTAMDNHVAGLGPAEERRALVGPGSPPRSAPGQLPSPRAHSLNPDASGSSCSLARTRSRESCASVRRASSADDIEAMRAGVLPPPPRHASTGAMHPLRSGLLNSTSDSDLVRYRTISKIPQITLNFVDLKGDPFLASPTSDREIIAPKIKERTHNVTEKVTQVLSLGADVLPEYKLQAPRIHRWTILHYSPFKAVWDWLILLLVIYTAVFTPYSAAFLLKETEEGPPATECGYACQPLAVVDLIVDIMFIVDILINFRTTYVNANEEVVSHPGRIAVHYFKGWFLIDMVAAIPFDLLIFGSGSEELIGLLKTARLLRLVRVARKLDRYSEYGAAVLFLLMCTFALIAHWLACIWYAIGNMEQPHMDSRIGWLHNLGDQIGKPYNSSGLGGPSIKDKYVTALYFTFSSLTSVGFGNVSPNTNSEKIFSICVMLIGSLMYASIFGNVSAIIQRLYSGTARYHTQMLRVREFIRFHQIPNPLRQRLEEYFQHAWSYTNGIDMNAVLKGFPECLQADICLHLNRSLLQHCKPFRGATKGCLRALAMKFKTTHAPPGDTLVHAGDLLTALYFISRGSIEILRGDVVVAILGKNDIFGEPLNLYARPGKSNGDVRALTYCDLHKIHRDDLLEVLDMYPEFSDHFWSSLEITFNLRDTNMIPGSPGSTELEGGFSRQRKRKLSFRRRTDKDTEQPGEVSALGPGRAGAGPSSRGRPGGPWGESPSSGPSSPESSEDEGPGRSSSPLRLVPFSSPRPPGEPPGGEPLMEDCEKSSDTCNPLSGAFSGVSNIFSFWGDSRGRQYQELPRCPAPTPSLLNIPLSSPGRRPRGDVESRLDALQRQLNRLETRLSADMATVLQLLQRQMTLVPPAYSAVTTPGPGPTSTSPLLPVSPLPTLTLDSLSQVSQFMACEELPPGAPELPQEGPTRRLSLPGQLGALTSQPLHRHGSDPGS
T1 sequence (P10635 whole entry): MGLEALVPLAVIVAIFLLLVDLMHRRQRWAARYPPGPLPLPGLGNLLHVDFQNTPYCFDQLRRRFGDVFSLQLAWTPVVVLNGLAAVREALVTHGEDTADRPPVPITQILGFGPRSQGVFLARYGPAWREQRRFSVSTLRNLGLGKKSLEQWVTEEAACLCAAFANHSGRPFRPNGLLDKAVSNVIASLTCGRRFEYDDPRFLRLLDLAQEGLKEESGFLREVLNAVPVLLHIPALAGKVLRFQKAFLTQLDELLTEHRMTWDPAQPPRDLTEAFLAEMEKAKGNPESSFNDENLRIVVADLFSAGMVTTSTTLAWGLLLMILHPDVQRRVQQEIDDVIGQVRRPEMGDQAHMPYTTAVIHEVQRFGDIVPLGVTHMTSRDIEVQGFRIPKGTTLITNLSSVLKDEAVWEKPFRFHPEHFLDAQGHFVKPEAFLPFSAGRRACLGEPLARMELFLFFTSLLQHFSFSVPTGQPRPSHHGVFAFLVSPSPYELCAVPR
Sequence of Cytochrome P450 2D6 (P10635 whole entry): as above

SMILES | Cmax [1] | Activity [2] | bioavailability [3] | Tmax [4] | AUC(0-t) at 24 h [5] | remaining at 0.5 h, 1 µM [8] | remaining at 0.5 h, 1 µM [9] | inhibition at 1 µM [10] | Activity [11] | inhibition at 10 µM [13] | half-life [14] | clearance [18] | AUC(0-t) at 24 h [19] | Vd [21] | Cmax [22] | EC50 [23] | Activity [25] | also measured
Cc1ccc(N2CC(CN[C@H](C)c3cccc4ccccc34)Oc3ccccc32)cc1C(=O)O.Cl (stereo partly specified) | 13000 nM | 100% | 79% | 0.05 h | 55 µM·h | 45% | 55% | 7% | 100% | 14% | 3 h | 5 mL/min/kg | 7 µM·h | 1 L/kg | 5000 nM | 7 nM | 66% | Activity [6]: 100%; inhibition at 10 µM [7]: 47%; Activity [12]: 97%; Activity [15]: 92%; Activity [16]: 86%; Tmax [17]: 4.8 min; Activity [20]: 100%; inhibition at 1 µM [24]: 44%
C[C@@H](NCCCc1cccc(C(F)(F)F)c1)c1cccc2ccccc12 [CINACALCET] | 270 nM | 92% | 19% | 0.5 h | 1.9 µM·h | 65% | 4% | 19% | 99% | 97% | 6 h | 44 mL/min/kg | 1.02 µM·h | 23 L/kg | 500 nM | 4 nM | 74% | Activity [26]: 61%; IC50 [27]: > 50000 nM; Activity [28]: Dose-Dependent Effect; Activity [29]: 58%; Activity [30]: 37%; Activity [31]: 92%; Activity [32]: 71%; Activity [33]: 97%
C[C@@H](N[C@H]1CCN(c2ccc(CC(=O)O)cc2)C1)c1cccc2ccccc12 [EVOCALCET] | – | – | – | – | – | 68% | 34% | – | – | – | – | – | – | – | – | – | – | clearance at 24 h [34]: 1.67 mL/min/kg; Vd at 24 h [35]: 0.591 L/kg; half-life at 24 h [36]: 7.32 h; AUC(0-t) at 24 h [37]: 8.03 µM·h; half-life at 24 h [38]: 6.13 h; Tmax at 24 h [39]: 0.81 h; AUC(0-t) at 24 h [40]: 23 µM·h; Cmax at 24 h [41]: 5840 nM; Cmax at 24 h [42]: 270 nM
